{"source": "patent US20250009660A1", "about": "“LIPID COMPOUND, LIPOSOME, EXOSOME, LIPID NANOPARTICLE, AND DRUG DELIVERY SYSTEM” (NAGASAKI UNIVERSITY, priority 2021, published 2025)", "key": {"NIH3T3": {"system": "NIH3T3", "test": "Evaluation of cell binding properties / cell uptake of modified liposome", "type": "cell-based, Mouse", "details": "NIH3T3 cells; for cell uptake (cell binding properties): rhodamine-labeled liposome modified with the lipid compound (FIG. 13)", "from_the_text": "(§1) The liposome was modified with a lipid compound by a post-modification method using NanoAssemblr (nano pharmaceutical production apparatus; manufactured by Precision NanoSystems Inc.)."}, "C26": {"system": "C26", "test": "Evaluation of cell binding properties / cell uptake of modified liposome", "type": "cell-based, Mouse", "details": "C26 cells; for cell uptake (cell binding properties): rhodamine-labeled liposome modified with the lipid compound (FIG. 13)", "from_the_text": "as §1"}, "[1]": {"details": "liposome modified with the lipid, compared with KK-(EK)4 lipid-modified liposome (FIG. 15)"}}, "note": "Entries after “also recorded” stand apart in the source; their conditions may differ."}
{"substance": "KKK-(EK)4-dipalmitoyllysine [K3]", "values": [{"measurement": "cell uptake (cell binding properties)", "setting": "NIH3T3", "result": "an increase in cell uptake was observed compared with the unmodified liposome; also recorded: the uptake of K3 and K4 when compared with K2 was the same"}, {"measurement": "cell uptake (cell binding properties)", "setting": "C26", "result": "an increase in cell uptake was observed compared with the unmodified liposome; also recorded: the uptake of K3 and K4 when compared with K2 was the same"}]}
{"substance": "KKKK-(EK)4-dipalmitoyllysine [K4]", "values": [{"measurement": "cell uptake (cell binding properties)", "setting": "NIH3T3", "result": "an increase in cell uptake was observed compared with the unmodified liposome; also recorded: the uptake of K3 and K4 when compared with K2 was the same"}, {"measurement": "cell uptake (cell binding properties)", "setting": "C26", "result": "an increase in cell uptake was observed compared with the unmodified liposome; also recorded: the uptake of K3 and K4 when compared with K2 was the same"}]}
{"substance": "KK-(EK)4-dipalmitoyllysine [K2]", "values": [{"measurement": "cell uptake (cell binding properties)", "setting": "NIH3T3", "result": "an increase in cell uptake was observed compared with the unmodified liposome; also recorded: In comparison with K1, the uptake of K2 increased in all of the cells"}, {"measurement": "cell uptake (cell binding properties)", "setting": "C26", "result": "an increase in cell uptake was observed compared with the unmodified liposome; also recorded: In comparison with K1, the uptake of K2 increased in all of the cells"}]}
{"substance": "K-(EK)4-dipalmitoyllysine [K1]", "values": [{"measurement": "cell uptake (cell binding properties)", "setting": "NIH3T3", "result": "an increase in cell uptake was observed compared with the unmodified liposome"}, {"measurement": "cell uptake (cell binding properties)", "setting": "C26", "result": "an increase in cell uptake was observed compared with the unmodified liposome"}]}
{"substance": "RR-(EK)4-dipalmitoyllysine [RR-(EK)4 lipid]", "values": [{"measurement": "cell binding properties", "setting": "NIH3T3; [1]", "result": "the same cell binding properties were exhibited"}, {"measurement": "cell binding properties", "setting": "C26; [1]", "result": "the same cell binding properties were exhibited"}]}
